Data published in patent publication US20060052430A1, “Antihistamines for increased tolerance to extreme heat” (priority 2004, published 2006).

Experiments:
chickens = settings: cimetidine in the diet, stress was not heat; cited from earlier work
[1] = in vivo; cited from earlier work
rat = settings: literature; cited from earlier work
[2] = conscious rats, i.v. 10 mg/kg in 3% EtOH 30 minutes prior to heat exposure at 44° C. ± 1

For CN/C(=N/CCSCc1nc[nH]c1C)NC#N [Cimetidine, cimetidine], the Stress-induced modulations (chickens) is given as “reduced”, the “Core body temperature after onset of heat stroke until heat shock, vs controls” value (conscious rats; FIG. 1) is given as “lower core body temperature” and the “Time a lower, non-pathological core temperature is maintained in extreme heat, vs controls” value (conscious rats; FIG. 1, cimetidine pretreated animals) is given as 2-4 times longer. For the same molecule, the “Time of MAP blood pressure crash, vs controls” value (conscious rats; FIG. 2) was “delayed”, the “Increase of interval between initiation of exposure to extreme heat and heat stroke crash to 40 mmHg, vs control” value (conscious rats; cimetidine pretreatment, P<0.05) was 2.6 fold and the “Max. HR (heart rate)” value (conscious rats; [2]) was 532 ± 28 BPM ± SEM. For the same molecule, the “Max. MAP (mean arterial pressure)” value (conscious rats; [2]) was 173 ± 23 mmHg ± SEM, the “Max. TB (body temperature)” value (conscious rats; [2]) was 41.9 ± 0.9 °C ± SEM and the “Heat Tolerance (time of heat exposure until heat shock, TB ≧ 41.3° C. and MAP <40 mmHg)” value (conscious rats; conscious rats, i.v. 10 mg/kg in 3% EtOH 30 minutes prior to heat exposure at 44° C. ± 1, p<0.05 vs control) was 315 ± 61 minutes ± SEM. The “Heart rate in the interval from exposure to heat stroke, MAP crash, vs controls” value (conscious rats; rat, in vivo) was “did not differ”, the Half-life [1] was 2 h and the “Effect in heat-induced brain injury (blood-brain barrier permeability, cerebral blood flow disturbances, edema, cell reactions)” value (rat) was “beneficial”.
